US8394629B2, “Use of vinca alkaloids and salts thereof” (Keio University, priority 2003, dated 2013)

What was measured:
[1] = system: neonatal porcine pancreatic cells; assay: Immunostaining of insulin-producing cells in cultured neonatal porcine pancreatic cells (Experiment example I); format: cell-based, pig; details: three weeks culture; nicotinamide 10 mM, HGF 10 ng/ml, conophylline 0.1 μg/ml; FIG. 2
Method: Neonatal pigs within 72 hours of birth were obtained from the (Takayama) pig farm. The whole pancreas (ventral and dorsal pancreas) was removed under general anesthesia immediately after animals were brought to the operating room. After elimination of connective tissue covering the removed pancreas and blood adhering to it, the pancreas was transferred to a 10 ml beaker and dissected into small pieces with ophthalmic scissors. The dissected pieces were transferred to a 100 ml conical flask, to which 50 to 60 ml of phosphate buffered saline (PBS) was added. After a 3 min rotation at 110 rpm on a low speed stirrer, the mixture was allowed to stand still and the supernatant was discarded. Then, 40 mL of phosphate buffered saline containing Liberase PI (Roche) at a concentration of 2.5 mg/ml was added. After an 8 min rotation at 110 rpm on a low speed stirrer, the mixture was allowed to stand still and the supernatant containing the cells was collected. The operation was repeated 5 times. The supernatant collected was centrifuged at 1200 rpm for 5 min. to collect cells. The cells collected in the centrifugal sedimentum was suspended in 25 to 50 ml of PBS, 25 ml of cell suspension was overlaid gently on 10 ml of Histopaque 1077 (Sigma), followed by centrifugation at 1800 rpm for 10 min. […]

[2] = system: pancreatic acinar carcinoma AR42J-B13 cells; assay: Insulin immunofluorescence of AR42J-B13 cells; format: cell-based, rat; details: after 72 hours; conophylline 0.1 μg/ml, HGF 100 pM, activin A 2 nM
Method: (§1) DMEM was sterilized by filtration after its pH was adjusted to 7.4 in the presence of 20 mM HEPES-NaOH. AR42J-B13 cells (endowed by Dr. Itaru Kojima, Institute for Cellular and Molecular Regulation, Gunma University) a highly sensitive subclone of AR42J, were cultured at 37° C. in a 5% CO2 incubator with 20 ml of culture medium DMEM supplemented with 100 mg/l kanamycin, 0.6 g/l glutamine, 100 unit/ml penicillin G, 5 mM NaHCO3, and 10% FBS. To prevent transformation due to a high density of the cells and to retain differentiation ability of the cells, the cells were transferred every 2 to 3 days to maintain 2.5% to 5% of confluency. The cell transfer was performed as follows: After the medium was removed, the cells were washed twice in PBS^− (Ca^2+, Mg^2+-free PBS; 8 g/l, NaCl, 0.2 g/l KCl, 0.916 g/Na2HPO4, 0.2 g/l KH2PO4). Subsequently, the cells were detached using 2 ml of trypsin-EDTA solution, and then trypsin was inactivated by addition of 8 ml of the medium. Subsequently, the cell were sedimented by centrifugation at 1000 rpm for 5 min, trypsin was removed, 10 ml of fresh medium was added, and transferred to be 2.5% to 5% of confluency. Cells were cryopreserved under the condition of 7.5% dimethyl sulfoxide (DMSO). […]

[3] = system: streptozotocin-administered rats; assay: Blood glucose levels of streptozotocin-administered rats; format: in vivo, Wistar rats; details: 5 μg/g BW subcutaneously for seven consecutive days from day 1 after streptozotocin; versus control; P<0.05 / P<0.01; FIG. 4
Method: Ten 1-day old Wistar rats (purchased from Japan SLC, Shizuoka, Japan) were intraperitoneally injected with streptozotocin (purchased from Wako Pure Chemical Industries, Ltd., dissolved in […] citrate buffer (pH 4.5)) at 85 μg/g BW per rat. Streptozotocin decreases insulin production by destroying pancreatic β cells, thereby inducing diabetes. The day of streptozotocin injection was defined as day 0, Starting from the next day (day 1), five rats were injected subcutaneously with a solution (ethanol) of conophylline at 5 μg/g BW for seven consecutive days and their random blood glucose levels were measured daily. Five rats in the control group received the same volume of solvent (Control).

[4] = system: pancreatic acinar carcinoma AR42J-B13 cells; assay: Morphological change and trypan blue exclusion test of AR42J-B13 cells; format: cell-based, rat
Method: as §1, with “medium.” for “medium. Subsequently, the cell were sedimented by centrifugation at 1000 rpm for 5 min, trypsin was removed, 10 ml of fresh medium was added, and transferred to be 2.5% to 5% of confluency. Cells were cryopreserved under the condition of 7.5% dimethyl sulfoxide (DMSO).”
Cells that had been prepared at a density of 4×10^5 cells/ml were plated at 500 μl per well on 24-well plates, followed by incubation at 37° C. in a 5% CO2 incubator. […] Further, the photograph was enlarged 2.5 times and a morphological change was defined as having occurred when the full length of a cell in the diameter became 1.5 times; thus, the rates of morphological changes were determined.

[5] = system: pancreatic acinar carcinoma AR42J-B13 cells; assay: ELISA quantification of insulin secretion of differentiated AR42J-B13 cells; format: cell-based, rat; details: secretion below the detection level
[6] = system: pancreatic acinar carcinoma AR42 J-B13 cells; details: known from prior report; cited from earlier work
[7] = system: porcine pancreatic cells; assay: Induction of insulin production in porcine pancreatic cells (statement in the description); format: cell-based, pig; details: no conditions given

Molecule: NC(=O)c1cccnc1 [nicotinamide, reference compound]
- insulin-producing cells colored in red (immunostaining) [1]: only a few insulin-producing cells

Molecule: HGF: Hepatocyte growth factor (HGF), Sigma
- red coloration of insulin in cells (immunofluorescence) [2]: no red coloration indicating insulin was observed

Molecule: CC[C@@]12CC(C(=O)OC)=C3Nc4cc5c(cc4[C@@]34CCN(C[C@H]3O[C@H]31)[C@@H]24)[C@@H]1[C@H](O5)[C@@H](O)[C@@]2(CC)CC(C(=O)OC)=C3Nc4c(cc(O)c(OC)c4OC)[C@@]34CCN1[C@@H]24 [conophylline]
- blood glucose levels [3]: apparent decrease in blood glucose levels
- process outgrowth (morphological change) ([4]; conophylline 0.1 to 0.3 μg/ml, alone or with HGF): concentration-dependently induced
- insulin secretion out of cells [5]: incapable of inducing insulin secretion out of cells
- insulin-producing cells colored in red (immunostaining) [1]: only a few insulin-producing cells
- insulin production of AR42J cells [6]: induces insulin production
- insulin release into culture medium [6]: did not release insulin into culture medium

Molecule: CC[C@@]12C=CCN3CC[C@]4(C(=C(C(=O)OC)C1)Nc1cc5c(cc14)[C@H]1[C@@H](O5)[C@H](O)[C@]4(CC)CC(C(=O)OC)=C5Nc6c(cc(O)c(OC)c6OC)[C@@]56CCN1[C@H]46)[C@H]32 (stereo in doubt) [conophyllidine]
- morphological changes involved in insulin production ([4]; AR42J cells, no concentration given): confirmed to induce morphological changes

B1: Activin: activin A, which belongs to the TGF-β superfamily (protein, UniProt P08476 311-426, looked up)
Inhibin beta A chain: GLECDGKVNICCKKQFFVSFKDIGWNDWIIAPSGYHANYCEGECPSHIAGTSGSSLSFHSTVINHYRMRGHSPFANLKSCCVPTKLRPMSMLYYDDGQNIIKKDIQNMIVEECGCS
- inducing insulin production of porcine pancreatic cells [7]: does not exhibit the effect
- insulin production of AR42J cells [6]: capable of inducing AR42J cells to produce insulin
